Laboratory results taken from patent US20180249717A1, “HOUSE DUST MITE ALLERGY PROTEIN REMOVER, AND COMPOSITION THEREOF” (AYJ BIO LAB INC., priority 2015, published 2018).

Legend:
[1] = test system: house dust mite proteins (two major HDM allergens group 1 and 2); assay: SDS-PAGE denaturing/neutralizing activity against house dust mite proteins; assay type: biochemical; set-up: key: +++: comparable to or higher than the activity of the positive control tannic acid; ++: neutralizing activity somewhat lower than that of the positive control; conditions: compounds; incubated with mite proteins 1 hr at 25 C; relative to tannic acid
From the text: Adult mites (both sexes, 6-8 days old) were extracted, as described previously [Nakada, S., K. Ito, C. Urata, Y. Sakamoto, M. Hasegawa, T. Nakagawa & T. Miyamoto. 1985. Allergenecity and immunogenicity of house-dust mite (Dermatophagoides farinae) antigens treated with glutaraldehyde. Ann. Allergy 54: 437441; Tovey, E. R. & B. A. Baldo. 1987. Comparison by electroblotting of IgE-binding components in ectracts of house dust mite bodies and spent mite culture. J. Allergy Clin. Immunol. 79: 93102.]. In brief, whole bodies (80 mg fresh weight/4 mL buffer) were homogenized on ice in 0.01 M phosphate-buffered saline (PBS) (pH 7.4) for 15 min. The homogenate was then stirred at 0° C. for 1 hr, centrifuged for 30 min at 14000 g, and concentrated by ultrafiltration to 1 mg/mL of protein.
The protein content was determined using a Bradford protein assay kit (Pierce, Rockford, Ill.). Bovine serum albumin (Pierce, Rockford, Ill.) was used as the standard. Precision Plus Protein Standards was supplied by Bio-Rad (Hercules, Calif.).
SDS-PAGE was performed according to the modified method of Laemmli [Laemmli, U.K. 1970. Cleavage of structural proteins during the assembly of the head of bacteriophage T4. Nature 227: 680685]. Based on the preliminary test results, mixtures of mite proteins ([…]) and each test material ([…]) in 4.5 μL of dimethyl sulfoxide (DMSO) were incubated for 1 hr at 25±1° C. Negative controls consisted of 4.5 μL of DMSO. Tannic acid or 3% tannic acid solution served as a positive control and was similarly formulated. Samples were mixed with an equal volume of SDS sample buffer (4% SDS, 4% mercaptoethanol, and 100 mM Tris-HCl, pH 8.0), boiled for 10 min, and resolved by electrophoresis on 12% (w/v) polyacrylamide gels by using a Mini-Protean 3 electrophoresis cell (Bio-Rad, Hercules, Calif.). After electrophoresis at 120 V for 80 min, the gels were stained with 0.1% Coomassie brilliant blue R-250 for quantification. The intensity of denaturing activity of each test material toward the two major HDM allergens group 1 and 2 was determined using a Gel Doc XR image analyzer with Quantity One Software (Bio-Rad, Hercules, Calif.) according to the manufacturer's instructions.
In FIG. 1, lane M represents a protein marker; land Ext represents a negative control loaded only with untreated house dust mite protein; lanes 5 and 6 indicate moderate activity; lanes 1, 2, 3 and 4 indicate strong activity; and lane TA represents a positive control treated with tannic acid.
Plant essential oils and compounds, confirmed to have neutralizing activity against house dust mites in the above experiments, are summarized in Tables 7 and 8 below, respectively.

[2] = test system: Dermatophagoides farina house dust mite proteins; assay: Dot-blot immunoassay for human-specific IgE reactivity (inhibition of allergenicity); assay type: binding; set-up: unit not given here; conditions: 500 μg each, allergic patient's serum IgE
Procedure: (§1) In addition, a dot-blot immunoassay for human-specific IgE reactivity was performed, as described previously [Tsai, L. C., Y. C. Sun, P. L. Chao, M. W. Hung, I. C. Kuo, et al. 2000. Protein sequence analysis and mapping of IgE and IgG epitopes of an allergenic 98 kDa Dermatophagoides farinae paramyosin, Der f 11. Allergy 55: 141147]. House dust mite proteins (10 μg) were applied to a PVDF membrane using a Hybri-Dot Manifold (Life Technologies, Gaithersburg, Md.) according to the manufacturer's instructions. After blocking with 0.1% PBS-T containing 5% skim milk, the membrane was incubated with 1:500 diluted allergic patient's antiserum at 4° C. overnight. After washing with 0.1% PBS-T three times, the membrane was incubated with 1:20000 diluted goat anti-human IgG (H+L)-HRP and IgE-HRP conjugate (Zymed Laboratories, Sanfrancisco, Calif.) for 1 hr at 25±1° C. The essential oils and compounds (500 μg each) were tested with the patient's serum which was diluted 1:250, and then incubated 1:5000 diluted IgE-HRP conjugate antibodies. After additional washing, as stated previously, the blot was incubated with ECL chemiluminescence reagent for 1 min and exposed to X-ray films for 5-20 min at room temperature. The intensity of the IgE-reacting dot was determined using a Bio-Rad Gel Doc XR image analyzer, as stated previously. Tannic acid served as a standard reference and was similarly formulated.
(§2) The reference numerals used in FIG. 2 indicate the following: C: untreated control; T: tannic acid; 1: spearmint essential oil; 2: Summer savory essential oil; 3: Oregano essential oil; 4: Carrot seed essential oil; 5: Catnip essential oil; 6: Mandarin essential oil; 7: Lime essential oil; and 8: Celery essential oil.
(§3) The inhibitory activities of the above-described plant essential oils and compounds against the allergenicity of two species of house dust mite proteins are shown in Tables 9 and 10 below, respectively. […]

[3] = test system: Dermatophagoides pteronyssinus house dust mite proteins; assay: as above; assay type: binding; conditions: 500 μg each, allergic patient's serum IgE
Procedure: as §1, §2, §3

[4] = test system: adult American house dust mites (Dermatophagoides farina); assay: Spray bioassay of spray formulations (acaricidal activity); assay type: in vivo; conditions: sprayed on cotton fabric, 24 h post-treatment
Procedure: The acaricidal effect of each of carrot seed essential formulations and spearmint essential oil formulations, dissolved in ethanolpolyoxyethylene+polyoxypropylene (9:1) styrenated phenyl ether, was evaluated using a spray bioassay.
In brief, a spray bioassay was used to evaluate the efficacy of four experimental spray formulations against adult American house dust mites (Dermatophagoides farina) [Lee, J. H., J. R. Kim, Y. R. Koh & Y. J. Ahn. 2013. Contact and fumigant toxicity of Pinus densiflora needle hydrodistillate constituents and related compounds and efficacy of spray formulations containing the oil to Dermatophagoides farinae. Pest Manag. Sci. 69: 696702]. Each test solution was sprayed two times successively at 10 cm upwards onto the 5 cm diameter black cotton-fabric circle. After drying for 5 min, each fabric circle was placed onto the bottom section of a disposable Petri dish (5 cm diameter×1 cm height). Groups of 40-50 adult mites (both sexes, 7-10 days old) were placed separately onto the treated fabric circles, and each dish was sealed with the original tight-fitting lid. 2.5 g/L of the commercial acaricide d-phenothrin or permethnrin (cis:trans, 25:75) spray served as a positive control. […] Mortalities were determined 24 h post-treatment under a dissecting microscope (×20). […]

[5] = test system: group 1 allergens (Der p I and Der f I); conditions: 3% tannic acid solution (wt/vol); cited from earlier work
[6] = test system: group 2 allergens (Der p II and Der f II); conditions: 3% tannic acid solution (wt/vol), compared with group 1; cited from earlier work

Row | Structure (SMILES) | Neutralizing activity [1] | Inhibition of allergenicity, Dermatophagoides farina ([2]; compounds) | Inhibition of allergenicity, Dermatophagoides pteronyssinus ([3]; compounds) | further results
1 | C=CCc1cc(OC)c2c(c1)OCO2 [Myristicin] | +++ | 76.3 | 67.0 | 
2 | C=C(C)[C@H](CO)CC=C(C)C [Lavandulol] | ++ | 74.4 | 62.7 | 
3 | C=CCN=C=S [Allyl isothiocyanate] | +++ | 82.1 | 73.0 | 
4 | CC(C)=CCCC(C)CCO (stereo not drawn) [Citronellol] | ++ | 61.2 | 49.2 | 
5 | C=C(C)[C@@H]1CC[C@@H](C)C[C@H]1O [Isopulegol] | ++ | 76.5 | 57.4 | 
6 | CC1(C)C(C=C(Cl)Cl)C1C(=O)OCc1cccc(Oc2ccccc2)c1 (stereo not drawn) [Permethrin] |  |  |  | mortality at 2500 µg/mL ([4]; Dermatophagoides, spearmint essential oil sprays, permethrin spray 2.5 g/L as positive control, read-out: Mortality (%, standard error)): 17.3 ± 3.3%
7 | C/C=C\c1cc(OC)c(OC)cc1OC [Beta-asarone] | ++ | 64.9 | 68.5 | 
8 | CC12CCC(CC1=O)C2(C)C (stereo not drawn) [Camphor] | ++ | 78.2 | 77.9 | 
9 | C=CC(C)(O)CCC=C(C)CCC=C(C)C (stereo not drawn) [Nerolidol] | ++ | 42.3 | 67.7 | 
10 | C=C(C)C1CC=C(C=O)CC1 (stereo not drawn) [Perillaldehyde] | +++ | 79.1 | 76.4 | 
11 | Cc1ccc(C(C)C)c(O)c1 [Thymol] | +++ | 79.4 | 67.9 | 
12 | CC(C)=CCC/C(C)=C/C=O [Geranial] | +++ | 72.6 | 68.1 | 
13 | CC(C)c1ccc(C=O)cc1 [Cuminaldehyde] | +++ | 80.4 | 76.1 | 
14 | CC=Cc1ccc(OC)cc1 [Anethole] | ++ | 62.3 | 52.1 | 
15 | CC(C)=CCC/C(C)=C\C=O [Neral] | ++ | 77.2 | 56.5 | 
16 | CC1=CCC2C(C1)C2(C)C (stereo not drawn) [Delta-3-carene] | +++ | 77.9 | 78.1 | 
17 | C=C(C)[C@@H]1CC=C(CO)CC1 [Perilla alcohol] | ++ | 68.7 | 56.5 | 
18 | CC(C)c1ccccc1 [Cumene] | ++ | 60.9 | 47.8 | 
19 | O=C(OC[C@H]1O[C@@H](OC(=O)c2cc(O)c(O)c(OC(=O)c3cc(O)c(O)c(O)c3)c2)[C@H](OC(=O)c2cc(O)c(O)c(OC(=O)c3cc(O)c(O)c(O)c3)c2)[C@@H](OC(=O)c2cc(O)c(O)c(OC(=O)c3cc(O)c(O)c(O)c3)c2)[C@@H]1OC(=O)c1cc(O)c(O)c(OC(=O)c2cc(O)c(O)c(O)c2)c1)c1cc(O)c(O)c(OC(=O)c2cc(O)c(O)c(O)c2)c1 [Tannic acid, reference compound] |  |  |  | Inhibition of allergenicity, Dermatophagoides farina ([2]; essential oils): 87.2; Inhibition of allergenicity, Dermatophagoides pteronyssinus ([3]; essential oils): 81.1; Denaturation of group 1 allergens [5]: denatures; Denaturation of group 2 allergens [6]: somewhat less effective
20 | CC(C)=CC1C(C(=O)OCc2cccc(Oc3ccccc3)c2)C1(C)C (stereo not drawn) [d-Phenothrin, d-phenothrin] |  |  |  | Mortality (%, standard error) ([4]; carrot seed essential oil sprays, d-phenothrin spray 2.5 g/L as positive control): 8.3 ± 1.7 d %
21 | CC(C)=CCC/C(C)=C\CO [Nerol] | ++ | 67.9 | 42.3 | 
